Measured values: PubChem BioAssay AID1963826 (Molecular Pharmacology Branch, DTP, NCI, 2024)
“And” between values parts separate entries of the source, which are not always exact repeats. Identical values can stand only once.

System: 926638-142-R-J1-PDC complex spheroid viability
Assay: Anticancer human tumor 926638-142-R-J1-PDC patient-derived endometrial carcinoma cell line growth inhibition [POLQ]
Settings: for viability, T/C: stronger effect = lower value
Method: Multicellular complex tumor spheroid response to Polymerase (POL) inhibitors (novobiocin, ART-558, RP6685) in combination with a variety of drugs and investigational agents in selected tumor cell lines
The POL inhibitors (novobiocin, ART-558, and RP6685) were evaluated both individually and in combination with standard of care and investigational anticancer small molecules within a complex spheroid model of solid tumors. . Complex spheroids include a stromal component modeled by human endothelial cells (HUVEC) and fibroblasts modeled by human mesenchymal stem cells (MSCs). The concentration ranges selected for each drug and investigational agent were based upon clinically achievable concentrations if the clinical Cmax of the agent was known.
Compounds. The drugs and investigational agents: novobiocin (NSC847541), ART-558 (NSC835418), RP-6685 (NSC848927), peposertib (NSC802822), ceralasertib (NSC780249), elimusertib (NSC800525), camonsertib (NSC841442), AZD-1390 (NSC803789), olaparib (NSC753686), talazoparib (NSC767125), rucaparib (NSC756644), sotorasib (NSC818433), MRTX-1133 (NSC836407), SN-38 (NSC673596), topotecan (NSC609699), epotoside (NSC141540), doxorubicin (NSC123127), gemcitabine (NSC613327), 5-fluorouracil (NSC19893), paclitaxel (NSC125973), vemurafenib (NSC761431), MSA-2 (NSC828583), SN-011 (NSC837082), adavosertib (NSC754352), prexasertib (NSC758257), carboplatin (NSC241240) and oxaliplatin (NSC266046), were obtained from the National Cancer Institute (NCI) Developmental Therapeutics Program Chemical Repository (21). The FDA-approved anticancer drug set is available from the Developmental Therapeutics Program at https://dtp.cancer.gov/organization/dscb/obtaining/. […] The stock solutions were prepared in dimethyl sulfoxide (DMSO, Sigma-Aldrich, St. Louis, MO, cat. D2650), except for the platinum compounds which were prepared in saline (Quality Biological, Gaithersburg, MD, cat. 114-055-101), at 800-fold the tested concentration and stored at -70 degrees C prior to their use. All drugs and investigational agents were tested over a range starting from a high concentration at or near the clinical Cmax and decreasing in half-log increments. If the clinical Cmax for an agent had not been determined, the highest concentration tested was 10 microM, except for SN-38, which was tested at a high concentration of 1 microM.
Cell Culture. All cells were maintained in an incubator at 37 degrees C and 5% CO2 with 95% humidity. The PDC lines were cultured according to standard operating procedures established by the NCI PDMR (https://pdmr.cancer.gov). Table 3 of the manuscript, lists the cell lines along with the number of the three cell types plated to form the mct-spheroids and media for tumor cell growth. After thawing, all PDC lines, except 997537-175-T-J1-PDC and 415267-285-R-J2-PDC, were cultured in Matrigel-coated flasks prepared with a working solution of 1X Ham's F-12 nutrient mix, without supplementation (Thermo Fisher Scientific, cat. 11765054), 100 U/mL penicillin-streptomycin (Thermo Fisher Scientific, cat. 15140122), and 2.5% Matrigel (Corning Inc., Corning, NY, cat. 354248) for the first three passages. The two PDC lines 997537-175-T-J1-PDC and 415267-285-R-J2-PDC were cultured on uncoated flasks. The 857933-349-R-J2-PDC line was cultured in 6C/Colon 1B media containing advanced DMEM/F-12 (Thermo Fisher Scientific, cat. 12634028), 10 mM HEPES (Thermo Fisher Scientific, cat. 15630080), 1X GlutaMAX supplement (Thermo Fisher Scientific, cat. 35050061), 0.1 mg/mL primocin (InvivoGen, San Diego, CA, cat. ant-pm-2), 10% defined fetal bovine serum, heat inactivated (HyClone Laboratories Inc., Logan, UT, cat. SH30070.03HI), 50% L-WRN conditioned media (ATCC, cat. CRL-3276), 1.25 mM N-Acetyl-L-cysteine (Sigma-Aldrich, cat. A9165), 10 mM nicotinamide (Sigma-Aldrich, cat. N0636), 1X B-27 supplement (Thermo Fisher Scientific, cat. 17504044), 1X N-2 supplement (Thermo Fisher Scientific, cat. […]
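Note: spheroids exposed to drugs for one week before readout.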
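Throughout, for viability, T/C: percent viability relative to DMSO vehicle control wells set as 100%.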

## COc1ccc([C@@H](O)c2cc(-c3ncnc4cc(N5CCOCC5)ccc34)c(F)cc2Cl)nn1 + Nc1ccc(C#CCN(C(=O)Cc2ncc(C(F)(F)F)cc2C(F)(F)F)c2ccc(F)cc2)nn1
Curve of first compound, second compound 0.0316 µM
  IC50: 631 nM
Curve of first compound, second compound 0.1 µM
  IC50: 450 nM
Curve of first compound, second compound 0.316 µM
  IC50: 572 nM
Curve of first compound, second compound 1 µM
  IC50: 708 nM
Curve of first compound, second compound 3.16 µM
  IC50: 628 nM
Curve of first compound, second compound 10 µM
  IC50: 537 nM
Second compound 0.0316 µM, first compound 0.0316 µM
  viability, T/C: 90.7%
Second compound 0.0316 µM, first compound 0.1 µM
  viability, T/C: 82%
Second compound 0.0316 µM, first compound 0.316 µM
  viability, T/C: 58.1%
Second compound 0.0316 µM, first compound 1 µM
  viability, T/C: 47.2%
Second compound 0.0316 µM, first compound 3.16 µM
  viability, T/C: 20.1%
Second compound 0.0316 µM, first compound 10 µM
  viability, T/C: 14.7%
Second compound 0.1 µM, first compound 0.0316 µM
  viability, T/C: 101%
Second compound 0.1 µM, first compound 0.1 µM
  viability, T/C: 83.3%
Second compound 0.1 µM, first compound 0.316 µM
  viability, T/C: 56.6%
Second compound 0.1 µM, first compound 1 µM
  viability, T/C: 34%
Second compound 0.1 µM, first compound 3.16 µM
  viability, T/C: 19.4%
Second compound 0.1 µM, first compound 10 µM
  viability, T/C: 12.7%
Second compound 0.316 µM, first compound 0.0316 µM
  viability, T/C: 119%
Second compound 0.316 µM, first compound 0.1 µM
  viability, T/C: 101%
Second compound 0.316 µM, first compound 0.316 µM
  viability, T/C: 67.1%
Second compound 0.316 µM, first compound 1 µM
  viability, T/C: 33.9%
Second compound 0.316 µM, first compound 3.16 µM
  viability, T/C: 19.8%
Second compound 0.316 µM, first compound 10 µM
  viability, T/C: 15%
Second compound 1 µM, first compound 0.0316 µM
  viability, T/C: 103%
Second compound 1 µM, first compound 0.1 µM
  viability, T/C: 88.9%
Second compound 1 µM, first compound 0.316 µM
  viability, T/C: 71.9%
Second compound 1 µM, first compound 1 µM
  viability, T/C: 41.2%
Second compound 1 µM, first compound 3.16 µM
  viability, T/C: 20%
Second compound 1 µM, first compound 10 µM
  viability, T/C: 13.2%
Second compound 3.16 µM, first compound 0.0316 µM
  viability, T/C: 91.6%
Second compound 3.16 µM, first compound 0.1 µM
  viability, T/C: 75.8%
Second compound 3.16 µM, first compound 0.316 µM
  viability, T/C: 67%
Second compound 3.16 µM, first compound 1 µM
  viability, T/C: 39.3%
Second compound 3.16 µM, first compound 3.16 µM
  viability, T/C: 22.9%
Second compound 3.16 µM, first compound 10 µM
  viability, T/C: 12.7%
Second compound 10 µM, first compound 0.0316 µM
  viability, T/C: 81.4%
Second compound 10 µM, first compound 0.1 µM
  viability, T/C: 76.2%
Second compound 10 µM, first compound 0.316 µM
  viability, T/C: 65.6%
Second compound 10 µM, first compound 1 µM
  viability, T/C: 32%
Second compound 10 µM, first compound 3.16 µM
  viability, T/C: 15%
Second compound 10 µM, first compound 10 µM
  viability, T/C: 10.2%

## CC[C@@]1(O)C(=O)OCc2c1cc1n(c2=O)Cc2cc3c(CN(C)C)c(O)ccc3nc2-1
Compound 0.000316 µM
  viability, T/C: 92.4% and 102% and 103%
Compound 0.001 µM
  viability, T/C: 87.4% and 90.6% and 84.2%
Compound 0.00316 µM
  viability, T/C: 86.8% and 84.1% and 78.3%
Compound 0.01 µM
  viability, T/C: 72.1% and 81.6% and 70.2%
Compound 0.0316 µM
  viability, T/C: 68.5% and 73.5% and 62%
Compound 0.1 µM
  viability, T/C: 43.1% and 49% and 41.8%
Curve of compound
  IC50: 72.3 nM and > 100 nM and 63.1 nM
